Assay results published in patent US20110008461A1 (priority 2008, published 2011).
Where “and” joins values, the source holds several entries; their conditions need not be identical. Identical values can stand only once. Counter-ions that a name gives are not always drawn. Like-named read-outs stand apart in the source and are kept apart here. Marks after values point to notes of the source that are not given here.

Tests used:
[1] = molecular target: T1, Rat Liver Cytosolic Phosphoenolpyruvate Carboxykinase (Rattus norvegicus, UniProt P07379); experiment: Continuous spectrophotometric PEPCK inhibition assay coupled to malate dehydrogenase (preliminary screen, inhibition patterns, Dixon plots); conditions: for Inhibition of PEPCK (in words): against PEP;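 as to all read-outs here: PEPCK activity followed continuously via malate dehydrogenase coupling, where OAA reduction consumes NADH, seen as falling absorbance at 340 nm, run at 35 °C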
T1 sequence (P07379 1-622): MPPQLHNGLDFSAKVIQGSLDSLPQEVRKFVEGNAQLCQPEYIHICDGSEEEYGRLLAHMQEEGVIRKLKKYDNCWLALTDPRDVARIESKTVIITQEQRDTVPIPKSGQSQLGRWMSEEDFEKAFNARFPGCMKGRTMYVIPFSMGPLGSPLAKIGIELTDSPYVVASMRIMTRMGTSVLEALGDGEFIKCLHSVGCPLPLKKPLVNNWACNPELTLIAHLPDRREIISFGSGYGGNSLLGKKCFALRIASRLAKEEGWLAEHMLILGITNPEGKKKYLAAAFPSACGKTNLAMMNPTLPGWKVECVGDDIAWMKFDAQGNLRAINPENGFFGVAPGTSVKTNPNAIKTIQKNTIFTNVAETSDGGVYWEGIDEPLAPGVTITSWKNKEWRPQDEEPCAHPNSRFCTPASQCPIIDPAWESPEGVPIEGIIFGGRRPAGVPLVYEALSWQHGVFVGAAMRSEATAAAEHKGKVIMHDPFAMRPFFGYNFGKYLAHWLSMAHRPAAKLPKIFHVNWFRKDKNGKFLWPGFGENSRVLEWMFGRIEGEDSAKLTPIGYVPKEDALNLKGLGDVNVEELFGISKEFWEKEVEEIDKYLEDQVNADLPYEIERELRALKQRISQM
Procedure: TES (pH 7.2), 7.5% glycerol (v:v), 0.2 mM EDTA.
The inhibition of PEPCK by various compounds was evaluated using a continuous spectrophotometric assay in which the coupling enzyme, malate dehydrogenase, reduced OAA to malate concomitant with the oxidation of NADH to NAD^+. The decrease in absorbance at 340 nm was monitored using a Beckman DU-70 Spectrophotometer equipped with a temperature controller. The standard 1-mL reaction mixture for the production of OAA contained 56 mM HEPES-KOH buffer (pH 7.0), 1 mM IDP (or alternatively, 0.1 mM GDP), 23 U malate dehydrogenase (1 unit of malate dehydrogenase is defined as 1 mole malate produced/min/mg protein), 0.25 mM NADH, 2.3 mM MnCl2, and 48 mM NaHCO3. […] All assay components except PEPCK were preincubated in the cuvette for 3 min at 35° C., the standard assay temperature.
The kinetic parameters for the inhibition studies were best fit to the equations for competitive inhibition (Eq. 1) and noncompetitive inhibition (Eq. 2), using the computer program and nomenclature of Cleland (Cleland, W. W. (1979) Statistical analysis of enzyme kinetic data. Methods Enzymol 63, 103-138).
v=VA/[K(1+1/Kis)+A] (Eq. 1)
v=VA/[K(1/Kis)+A(1+1/Kii)] (Eq. 2)
The parameters are defined as follows: v is the initial velocity, V is the maximal rate of product formation in the absence of inhibitor, A is the concentration of the variable substrate, K is the apparent Michaelis constant for the varied substrate, and Kis and Kii are the inhibition constants.

[2] = molecular target: T2, avian liver mPEPCK (Gallus gallus, UniProt P21642); conditions: with respect to OAA; cited from earlier work
T2 sequence (P21642 34-641): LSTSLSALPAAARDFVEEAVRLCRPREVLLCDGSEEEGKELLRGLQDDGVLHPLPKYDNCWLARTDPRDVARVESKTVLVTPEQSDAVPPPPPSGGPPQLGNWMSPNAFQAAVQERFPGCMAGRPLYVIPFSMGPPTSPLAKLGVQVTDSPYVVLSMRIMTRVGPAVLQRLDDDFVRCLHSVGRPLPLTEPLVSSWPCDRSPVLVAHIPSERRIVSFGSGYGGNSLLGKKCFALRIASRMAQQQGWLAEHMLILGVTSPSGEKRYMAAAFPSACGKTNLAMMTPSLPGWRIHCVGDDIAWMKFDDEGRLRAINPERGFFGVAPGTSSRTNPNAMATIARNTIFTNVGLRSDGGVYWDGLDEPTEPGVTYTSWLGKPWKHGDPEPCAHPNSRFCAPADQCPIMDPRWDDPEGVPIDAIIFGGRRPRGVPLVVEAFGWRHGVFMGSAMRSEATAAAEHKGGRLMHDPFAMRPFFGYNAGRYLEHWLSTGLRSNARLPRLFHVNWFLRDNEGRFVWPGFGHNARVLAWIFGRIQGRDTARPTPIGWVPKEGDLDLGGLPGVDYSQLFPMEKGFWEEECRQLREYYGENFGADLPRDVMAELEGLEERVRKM

[3] = molecular target: pyrophosphate-dependent phosphofructokinase; conditions: reported; cited from earlier work
[4] = substrate: C=C(OP(=O)(O)O)C(=O)O; experiment: cells, lysate or membranes named; conditions: other: substrate, determined under the same assay conditions
[5] = analogue 1.5 mM, PEP 40 μM, preliminary screen, average of two PEPCK preparations
[6] = analogue 3 mM, PEP 40 μM, preliminary screen, average of two PEPCK preparations
[7] = read-out: Ki, intercept effect (Kii), noncompetitive, PEP varied substrate
[8] = read-out: Ki, slope effect (Kis), noncompetitive, PEP varied substrate, Cleland kinetics program

N[C@@H](COP(=O)(O)O)C(=O)O [Compound 21, Serine phosphate]
% Activity Remaining [1, 5]: 108^f %

O=C(O)C(=O)CS(=O)(=O)O [β-sulfopyruvate]
Pattern of Inhibition [2]: competitive

C=C(CP(=O)(O)O)C(=O)O [Compound 15, 2-(Phosphonomethyl)acrylate]
Inhibition of PEPCK (in words) [1]: noninhibitory | % Activity Remaining [1, 6]: 92^c %

O=S(=O)(O)CS(=O)(=O)O [Compound 31, Methanedisulfonate]
Pattern of Inhibition ([1]; PEP varied substrate): noncompetitive | Pattern of Inhibition ([1]; PEP varied substrate, listed as Methanedisulfonate (31)): Noncompetitive | % Activity Remaining [1, 5]: 4^f % | Ki [1, 7]: 168 ± 25 µM | Ki [1, 8]: 27 ± 3 µM

O=C(O)CCC(=O)O [Compound 3, Succinate]
% Activity Remaining [1, 6]: 91^c % | Ki ([1]; from Dixon plots using two PEP concentrations): > 8000 µM

C=C(CC(=O)O)C(=O)O [Compound 7, Itaconate]
% Activity Remaining [1, 6]: 91^c %

O=C(O)/C=C/C(=O)O [Compound 6, Fumarate]
Inhibition of PEPCK (in words) [1]: did not inhibit | % Activity Remaining ([1]; analogue 6 mM, PEP 40 μM, preliminary screen, average of two PEPCK preparations): 83^e %

O=[N+]([O-])c1ccc(OP(=O)(O)O)cc1 [Compound 35, p-Nitrophenylphosphate]
% Activity Remaining [1, 6]: 103^c %

C[C@@H]1O[C@@H]1P(=O)(O)O [Compound 33, Phosphomycin]
% Activity Remaining [1, 6]: 108^c %

O=P(O)(O)OP(=O)(O)O [Compound 28, Pyrophosphate]
% Activity Remaining [1]: 22^f % | Ki [1]: 172 µM | Ki ([1]; read-out: Ki, intercept effect (Kii)): 63 µM and 64 µM | Ki ([1]; read-out: Ki, slope effect (Kis)): 34 µM

NC(CCP(=O)(O)O)C(=O)O (centres unmarked) [Compound 19, 2-Amino-4-phosphonobutyrate]
% Activity Remaining [1, 6]: 104^c %

O=C(O)CP(=O)(O)O [Compound 11, Phosphonoacetate]
Inhibition of PEPCK (in words) [1]: noninhibitory | % Activity Remaining [1, 6]: 108^c %

O=C(O)CNCP(=O)(O)O [Compound 17, N-Phosphonomethylglycine]
% Activity Remaining [1, 6]: 104^c %

Threonine phosphate [Compound 22]
% Activity Remaining [1, 6]: 97^c %

NC(CP(=O)(O)O)C(=O)O (centres unmarked) [Compound 18, 2-Amino-3-phosphonopropionate]
Inhibition of PEPCK (in words) [1]: fails to inhibit | % Activity Remaining [1, 6]: 94^c %

O=P(O)(O)CP(=O)(O)O [Compound 29, Methanediphosphonate]
IC50 [3]: > 2000 µM | Pattern of Inhibition ([1]; PEP varied substrate): noncompetitive | Pattern of Inhibition ([1]; PEP varied substrate, listed as Methanediphosphonate (29)): Noncompetitive | % Activity Remaining [1, 5]: 4^f % | Ki [1, 7]: 90 ± 5 µM | Ki [1, 8]: 32 ± 2 µM

O=C(O)C1CCCC1C(=O)O (centres unmarked) [Compound 8, 1,2-Cyclopentanedicarboxylate]
% Activity Remaining [1]: 91^c %

B1: Rat Liver Cytosolic Phosphoenolpyruvate Carboxykinase (Rattus norvegicus) (protein)
chain: MPPQLHNGLDFSAKVIQGSLDSLPQEVRKFVEGNAQLCQPEYIHICDGSEEEYGRLLAHMQEEGVIRKLKKYDNCWLALTDPRDVARIESKTVIITQEQRDTVPIPKSGQSQLGRWMSEEDFEKAFNARFPGCMKGRTMYVIPFSMGPLGSPLAKIGIELTDSPYVVASMRIMTRMGTSVLEALGDGEFIKCLHSVGCPLPLKKPLVNNWACNPELTLIAHLPDRREIISFGSGYGGNSLLGKKCFALRIASRLAKEEGWLAEHMLILGITNPEGKKKYLAAAFPSACGKTNLAMMNPTLPGWKVECVGDDIAWMKFDAQGNLRAINPENGFFGVAPGTSVKTNPNAIKTIQKNTIFTNVAETSDGGVYWEGIDEPLAPGVTITSWKNKEWRPQDEEPCAHPNSRFCTPASQCPIIDPAWESPEGVPIEGIIFGGRRPAGVPLVYEALSWQHGVFVGAAMRSEATAAAEHKGKVIMHDPFAMRPFFGYNFGKYLAHWLSMAHRPAAKLPKIFHVNWFRKDKNGKFLWPGFGENSRVLEWMFGRIEGEDSAKLTPIGYVPKEDALNLKGLGDVNVEELFGISKEFWEKEVEEIDKYLEDQVNADLPYEIERELRALKQRISQM
Km [4]: 82 µM and 89 µM
